{
  "source": "patent US10202584B2",
  "about": "“Red-shifted luciferase-luciferin pairs for enhanced bioluminescence” (The Regents of the University of California, priority 2016, dated 2019)",
  "key": {"[1]": {"system": "luciferase-expressing HEK 293T cells", "test": "Bioluminescence imaging of intact luciferase-expressing HEK 293T cells", "format": "cell-based, Human", "conditions": "FLuc-expressing HEK 293T cells, millimolar substrate", "excerpt": "Images were acquired without a filter (1c) or with a 695±25 nm NIR emission filter (1e). Panels 2d and 2f are quantification results for Panels 2c and 2e, respectively. […] Data are shown as mean and s.d. of three independent experiments.\nData are shown as mean and s.d. of three independent experiments.\nHEK 293T (purchased from ATCC and tested for mycoplasma by PCR), which is one of the most widely used and readily transfectable cell lines, was used for all tissue culture transfections. HEK 293T cells were cultured at 37° C. with 5% CO2 in Dulbecco's Modified Eagle's Medium (DMEM) supplemented with 10% fetal bovine serum (FBS). Transfection mixtures were prepared with 3 μg of plasmid DNA and 9 μg of PEI (polyethylenimine, linear, MW 25 kDa) in DMEM and incubated for 20 min at room temperature. The medium was first aspirated, and subsequently, the transfection mixtures were added to cells at 70% confluency on 35-mm culture dishes seeded one day prior to transfection. […]\nThe number and density of cells in DPBS suspension were determined using a hemocytometer. […] To use the luminescence dark box to directly image cells, we added luciferase-expressing HEK293T cells (2000 cells per well with ˜70% transfection efficiency) and the corresponding luciferin substrates into wells of a white-wall, 96-well plate. […] All images were analyzed using the Fiji image analysis software [1]."}, "HEK 293T cells [2]": {"system": "HEK 293T cells", "test": "Evaluation of the cytotoxicity of luciferins", "protocol": "(§1) FIG. 15 is a panel showing the evaluation of the cytotoxicity of various luciferins. (15a) Viability of HEK 293T cells determined using RealTime-Glo™ MT Cell Viability Assay (Promega) after incubation with individual luciferin substrates for 24 h at 37° C. (15b) Evaluation of cell morphology and staining of dead cells. Cells incubated with the indicated luciferins for 24 h at 37° C. were stained with propidium iodide (PI), a fluorescent dye for dead cells.\n(§2) Cell viability was determined using RealTime-Glo™ MT Cell Viability Assay (Promega) after incubation of HEK 293T cells with individual luciferin substrates for 24 h at 37° C. Cell morphology was further evaluated using microscopy. Briefly, HEK 293T cells in 35-mm culture dishes were washed twice with 400 μL DPBS pre-warmed to 37° C., and further incubated in 500 μL DPBS containing 20 μg/mL propidium iodide (PI), a fluorescent stain for dead cells, at room temperature for 15 min under light-shielded conditions. Cells were further rinsed with pre-warmed 300 μL DPBS three times to remove residual PI. Cells in 300 μL DPBS were next analyzed on a Motic AE31 microscope equipped with a 100 W Short-Arc Mercury lamp, a 540/25 nm excitation filter, a 565 nm longpass dichroic mirror, and a 605/55 nm emission filter."}, "purified luciferases": {"system": "purified luciferases", "test": "In vitro bioluminescence intensity with purified recombinant proteins", "format": "biochemical", "conditions": "assayed with NanoLuc", "source_text": "(§3) Signals were integrated until the substrates were completely consumed."}, "HEK 293T cells [3]": {"system": "HEK 293T cells", "test": "Cytotoxicity of luciferins (RealTime-Glo MT Cell Viability Assay; propidium iodide staining)", "format": "cell-based", "conditions": "24 h at 37° C., millimolar concentrations", "protocol": "as §1, §2"}, "[4]": {"biological_target": "ReNL (NanoLuc fused to fluorescent protein) (Oplophorus gracilirostris, UniProt Q9GV45)", "sequence (Q9GV45 28-196)": "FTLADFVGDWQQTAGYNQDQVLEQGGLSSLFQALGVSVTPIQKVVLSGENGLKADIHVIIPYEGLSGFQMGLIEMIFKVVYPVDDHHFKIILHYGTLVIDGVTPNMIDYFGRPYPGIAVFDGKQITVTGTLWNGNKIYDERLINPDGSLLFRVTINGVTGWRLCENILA", "test": "Apparent Michaelis constant and kcat, ReNL, bioluminescence", "format": "biochemical", "conditions": "assay buffer pH 6.0, mean ± s.d., n = 3", "source_text": "(§4) The final concentrations of all enzymes were 100 pM.\nas §3"}, "[5]": {"biological_target": "NanoLuc luciferase (Oplophorus gracihrostris-derived, parent, SEQ ID NO: 1) (Oplophorus gracilirostris, UniProt Q9GV45, A31E/A60N/A81I/F95D/I117V/K70R/L54V/L99Q/M102K/N193R/P142E/Q151K/Q38R/Q45L/V71I/Y165I)", "sequence (Q9GV45 28-196 A31E/Q38R/Q45L/L54V/A60N/K70R/V71I/A81I/F95D/L99Q/M102K/I117V/P142E/Q151K/Y165I/N193R, looked up)": "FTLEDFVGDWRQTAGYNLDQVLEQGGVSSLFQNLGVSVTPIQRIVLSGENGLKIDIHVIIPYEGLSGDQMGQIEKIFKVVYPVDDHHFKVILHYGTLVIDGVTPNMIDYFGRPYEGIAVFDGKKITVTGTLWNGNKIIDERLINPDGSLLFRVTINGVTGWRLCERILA", "test": "Apparent Michaelis constant and kcat, purified NanoLuc, bioluminescence", "conditions": "kcat=Imax/(QY*[E]); assay buffer pH 6.0; mean ± s.d., n = 3", "source_text": "as §4, §3"}, "[6]": {"biological_target": "Antares (NanoLuc fused to CyOFP1) (Oplophorus gracilirostris, UniProt Q9GV45)", "sequence (Q9GV45 28-196)": "as the sequence (Q9GV45 28-196) above", "test": "Apparent Michaelis constant and kcat, Antares, bioluminescence", "format": "biochemical", "conditions": "assay buffer pH 6.0, mean ± s.d., n = 3", "source_text": "as §4\n(9a) Primary structural arrangement of Antares and Antares2.\nas §3"}, "NanoLuc": {"biological_target": "NanoLuc (Oplophorus gracilirostris, UniProt Q9GV45, A31E/A60N/A81I/F95D/I117V/K70R/L54V/L99Q/M102K/N193R/P142E/Q151K/Q38R/Q45L/V71I/Y165I)", "sequence (Q9GV45 28-196 with tags or gaps with the stated changes limits assumed)": "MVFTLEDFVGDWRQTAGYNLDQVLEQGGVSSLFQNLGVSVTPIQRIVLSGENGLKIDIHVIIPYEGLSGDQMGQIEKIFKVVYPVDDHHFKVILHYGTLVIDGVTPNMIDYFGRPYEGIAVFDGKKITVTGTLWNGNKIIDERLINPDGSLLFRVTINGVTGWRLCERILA", "conditions": "cited from earlier work"}, "Rluc8": {"biological_target": "Rluc8 (Renilla reniformis, UniProt P27652, A143M/A55T/C124A/K136R/M185V/M253L/S130A/S287L)", "sequence (P27652 whole entry A55T/C124A/S130A/K136R/A143M/M185V/M253L/S287L)": "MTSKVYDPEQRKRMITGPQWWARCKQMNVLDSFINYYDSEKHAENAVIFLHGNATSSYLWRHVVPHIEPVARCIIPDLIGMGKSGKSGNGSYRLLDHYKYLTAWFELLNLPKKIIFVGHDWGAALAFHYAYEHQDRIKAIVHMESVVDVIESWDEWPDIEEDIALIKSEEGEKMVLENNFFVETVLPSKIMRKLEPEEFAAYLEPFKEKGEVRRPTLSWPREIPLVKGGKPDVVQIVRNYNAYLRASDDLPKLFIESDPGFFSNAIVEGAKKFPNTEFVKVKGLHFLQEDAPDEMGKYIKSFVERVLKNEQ", "conditions": "RLuc mutant Rluc8; cited from earlier work"}, "BALB/c mice": {"system": "BALB/c mice", "test": "Bioluminescence imaging in deep tissues of live mice (hydrodynamic transfection)", "format": "in vivo", "source_text": "FIG. 2 is a panel showing bioluminescence imaging of luciferase-luciferin pairs at superficial sites and in deep tissues of live mice. […] The group numbers in panel 2b are aligned with those in panel 2a. Two injection sites (one for luciferase-expressing cells and one for empty vehicle controls) for each mouse are illustrated with red arrows. […] Data are shown as mean and s.d. (n=3). […] Data are shown as mean and s.d. (n=4 for teLuc, Antares, and Antares2 with 3.3 μmol substrates, and n=3 for all other groups).\nFIG. 16 is a graph of bioluminescence kinetics of IP injected luciferins (3.3 μmol each) in hydrodynamically transfected mice.\nHydrodynamic transfections were performed on BALB/c mice as described elsewhere. Briefly, 20 μg of each luciferase-expressing plasmid in sterilized saline (volume equivalent to 9% bodyweight of the treated mouse) was injected into restrained mice via the tail vein over 4-8 sec. Mice were allowed to recover on heat pads and were monitored until their breathing rate returned to normal. […] To inject 3.3 μmol DTZ or furimazine, the total volumes were increased to 500 μL. […] The Fiji image analysis software was used to process images and derive integrated intensities."}, "[7]": {"conditions": "apparent, 100 pM enzyme, substrate 0.78 to 50 μM"}},
  "note": "Read-outs that look alike come from different tables or passages of the source.",
  "data": [
    {"molecule": "O=C(O)[C@H]1CSC(c2nc3ccc(O)cc3s2)=N1", "note": "[D-luciferin]", "values": [
      {"measurement": "bioluminescence intensity with FLuc compared with teLuc or Antares2 with micromolar DTZ", "setting": "[1]", "result": "1-2 orders of magnitude lower"}
    ]},
    {"molecule": "O=c1c(Cc2ccccc2)nc2c([Se]c3ccccc3)[nH]c(-c3ccccc3)cn1-2", "note": "[STZ, 2-benzyl-6-phenyl-8-(phenylselanyl)imidazo[1,2-a]pyrazin-3(7H)-one]", "values": [
      {"measurement": "cell toxicity", "setting": "HEK 293T cells [2]", "result": "induced cell death"},
      {"measurement": "cytotoxicity by propidium iodide staining of dead cells", "setting": "HEK 293T cells [2]", "result": "further confirmed by the red fluorescence of PI"},
      {"measurement": "brightness relative to furimazine", "setting": "purified luciferases", "result": "reduced brightness"}
    ]},
    {"molecule": "AkaLumine-HCl", "values": [
      {"measurement": "bioluminescence intensity with FLuc compared with teLuc or Antares2 with micromolar DTZ", "setting": "[1]", "result": "1-2 orders of magnitude lower"},
      {"measurement": "cell toxicity", "setting": "HEK 293T cells [2]", "result": "induced cell death"},
      {"measurement": "cytotoxicity by propidium iodide staining of dead cells", "setting": "HEK 293T cells [2]; HEK 293T cells, 24 h at 37° C.", "result": "further confirmed by the red fluorescence of PI"}
    ]},
    {"molecule": "O=c1c(Cc2ccccc2)nc2c(-c3ccccc3)[nH]c(-c3ccccc3)cn1-2", "note": "[DTZ]", "values": [
      {"measurement": "cell toxicity", "setting": "HEK 293T cells [3]", "result": "minimal cell toxicity"}
    ]},
    {"molecule": "O=c1c(Cc2ccco2)nc2c(Cc3ccccc3)[nH]c(-c3ccccc3)cn1-2", "note": "[furimazine]", "values": [
      {"measurement": "Km", "setting": "[4]; [7]", "result": "14.5 ± 1.3", "unit": "µM"},
      {"measurement": "kcat", "setting": "[4]; kcat=Imax/(QY*[E])", "result": "104 ± 4", "unit": "s⁻¹"},
      {"measurement": "cell toxicity", "setting": "HEK 293T cells [2]", "result": "induced cell death"},
      {"measurement": "cytotoxicity by propidium iodide staining of dead cells", "setting": "HEK 293T cells [2]; HEK 293T cells, 24 h at 37° C.", "result": "further confirmed by the red fluorescence of PI"},
      {"measurement": "kcat", "setting": "[5]", "result": "88.2 ± 1.7", "unit": "s⁻¹"},
      {"measurement": "Km", "setting": "[6]; [7]", "result": "11.1 ± 0.5", "unit": "µM"},
      {"measurement": "kcat", "setting": "[6]; kcat=Imax/(QY*[E])", "result": "112 ± 2", "unit": "s⁻¹"}
    ]},
    {"molecule": "6-pi-OH-CTZ", "values": [
      {"measurement": "bioluminescence with NanoLuc", "setting": "NanoLuc", "result": "hardly any bioluminescence"},
      {"measurement": "red-shift of Rluc8 bioluminescence", "setting": "Rluc8", "result": 47, "unit": "nm"}
    ]},
    {"molecule": "O=c1c(Cc2ccccc2)nc2c(-c3ccccc3)[nH]c(-c3ccccc3)cn1-2", "note": "[DTZ, diphenylterazine]", "values": [
      {"measurement": "cell toxicity", "setting": "HEK 293T cells [2]; HEK 293T cells, 24 h at 37° C., RealTime-Glo MT Cell Viability Assay", "result": "minimal cell toxicity at millimolar concentrations"},
      {"measurement": "brightness relative to furimazine", "setting": "purified luciferases", "result": "reduced brightness"},
      {"measurement": "bioluminescence kinetics after intraperitoneal injection", "setting": "BALB/c mice; 3.3 μmol, hydrodynamically transfected mice", "result": "extended kinetics"},
      {"measurement": "background emission in untransfected BALB/c mice", "setting": "BALB/c mice; DTZ injection", "result": "did not yield any background emission"}
    ]}
  ]
}
